Read-outs that look alike come from different tables or passages of the source. Where no end group is shown, it is not given here.
Experiments:
[1] = tested on: Pseudomonas aeruginosa and MRPA strains; assay: microbe, parasite or virus in culture; format: cell-based; settings: broth micro-dilution, 37 °C, 18–24 h
From the text: Gram-negative (Pseudomonas aeruginosa ATCC 27853) bacterial strains were obtained from the ATCC (American Type Culture Collection; Manassas, VA, USA). Multidrug-resistant strains (Pseudomonas aeruginosa 138, 431, 434, 557, 559, 778, 1034, 1162, 3290, 3399, 3592, 3904, 4007, 4319, 4891, 5018, and 671973) were obtained from the Chonnam National University Hospital (Gwangju, South Korea).
(§1) We examined the activity of each peptide against both pseudomonas aeruginosa and multidrug-resistant strains. The minimal inhibitory concentrations (MICs) of peptides were determined using the broth micro-dilution assay as described previously. Briefly, bacterial strains were cultivated with shaking overnight at 37 °C. The next day, they were diluted to a density of 2 × 10^5 CFU/mL with growth medium. Peptides were serially diluted with 10 mM sodium phosphate buffer. 50 µL bacterial aliquots were mixed with an equal volume of peptide solution, and incubated at 37 °C for 18–24 h. Inhibition of bacterial growth was determined by measuring the absorbance at 600 nm using a Versa Max microplate reader (Molecular Devices, Sunnyvale, CA, USA). The test was performed in triplicate.

mouse red blood cells = assay: Hemolytic activity; format: cell-based; settings: 8% mouse RBCs in PBS, 37 °C, 1 h, A414, triplicate
Method: The hemolytic activities of the peptides were determined as previously described. Fresh mouse red blood cells (RBCs) were washed and diluted to 8% with PBS. RBC suspension was added to 96-well plates (100 µL/well), mixed with an equal volume of serially diluted peptides, and incubated at 37 °C for 1 h with gentle shaking. The plate was centrifuged and the supernatant was transferred to a 96-well plate. The absorbance at 414 nm was measured with a Versa-Max ELISA reader (Molecular Devices). PBS and 0.1% Triton X-100 were used as negative and positive controls, respectively. The experiment was performed in triplicate. The hemolysis rate was calculated using the following formula[55]: % Hemolysis = [(Abs 414 nm in the peptide solution-Abs 414 nm in PBS)/(Abs 414 nm in 0.1% Triton X-100-Abs 414 nm in PBS)] × 100

HaCaT cells = assay: Cytotoxicity, MTT assay; format: cell-based, human; settings: 50 µM, 24 h
Method: We used the MTT assay to evaluate the toxicity of the peptides toward human skin epithelial cells (HaCaT) as previously described. Briefly, HaCaT cells were seeded at a density of 2 × 10^4 cells per well in 96-well microtiter plates in Dulbecco’s modified Eagle’s medium (DMEM) containing 10% foetal bovine serum (FBS) at 37 °C under 5% CO2 atmosphere. The next day, peptides were added to each well at various final concentrations (higher concentration of 200 µM). After 24 h incubation, culture supernatants were removed. 0.5 mg/mL MTT was added to each well, and the plates were incubated for 4 h at 37 °C. The medium was replaced by dimethyl sulfoxide (DMSO) to dissolve the formazan crystals formed in the wells. The absorbance at 570 nm was measured using a Versa-Max microplate ELISA reader (Molecular Devices). The viability rate was calculated using the following formula: Cell viability (%) = (absorbance of treated sample)/(absorbance of control) × 100.

P. aeruginosa 27853 = format: cell-based, Pseudomonas aeruginosa
Method: as §1
The effects of various cations on the antibacterial activities of the parental and analogue peptides against P. aeruginosa 27853 were evaluated as previously described. Bacteria was treated with peptides at a final concentration 25 µM in the presence of physiological salts such as NaCl (50 mM, 100 mM, and 150 mM), CaCl2 (1.25 mM, 2.5 mM, and 5 mM), or MgCl2 (0.5 mM, 1 mM, and 2 mM). The MIC values were determined as described above.

[2] = tested on: P. aeruginosa strains (biofilm formation); format: cell-based, Pseudomonas aeruginosa; settings: 24 h, 37 °C, crystal violet OD595
Method: To evaluate the ability of bacterial strains to form biofilms either in the absence or presence of peptides, antibiotic-susceptible P. aeruginosa (ATCC 27853), and various strains of MDR P. aeruginosa were cultured in nutrient broth (NB). […]. The biofilms were fixed with 100% methanol for 15 min, stained with 0.1% crystal violet (CV) for 1 h, and rinsed three times with distilled water (dH2O). After the addition of 95% ethanol, biofilm mass was quantified by measuring OD at 595 nm using a Versa-Max microplate ELISA reader (Molecular Devices). Results were expressed as the percentage of biofilm formed with respect to the control. […] All experiments were performed at least in triplicate.

mammalian cells = settings: at concentrations below 50 µM; cited from earlier work
Method: In a previous study, Hp1404 was purified from the venomous gland of the scorpion Heterometrus petersii. […] Moreover, it is not toxic to mammalian cells at concentrations below 50 µM[20].

[3] = P. aeruginosa 138 (multidrug-resistant), triplicate
[4] = P. aeruginosa 431 (multidrug-resistant), triplicate
[5] = P. aeruginosa 434 (multidrug-resistant), triplicate
[6] = P. aeruginosa 557 (multidrug-resistant), triplicate
[7] = P. aeruginosa 559 (multidrug-resistant), triplicate
[8] = P. aeruginosa 778 (multidrug-resistant), triplicate
[9] = P. aeruginosa 1034 (multidrug-resistant), triplicate
[10] = P. aeruginosa 1162 (multidrug-resistant), triplicate
[11] = P. aeruginosa 3290 (multidrug-resistant), triplicate
[12] = P. aeruginosa 3399 (multidrug-resistant), triplicate
[13] = P. aeruginosa 3543 (multidrug-resistant), triplicate
[14] = P. aeruginosa 3592 (multidrug-resistant), triplicate
[15] = P. aeruginosa 3904 (multidrug-resistant), triplicate
[16] = P. aeruginosa 4007 (multidrug-resistant), triplicate
[17] = P. aeruginosa 4319 (multidrug-resistant), triplicate
[18] = P. aeruginosa 4891 (multidrug-resistant), triplicate
[19] = P. aeruginosa 5018 (multidrug-resistant), triplicate
[20] = P. aeruginosa 671973 (multidrug-resistant), triplicate
[21] = P. aeruginosa ATCC 27853, 2 × 10^5 CFU/mL, A600, triplicate
[22] = P. aeruginosa 27853, 5 × 10^5 CFU/mL, 0.2% glucose

GILGKLWEGVKSIF-NH2 [Hp1404]
30%: survival rate of HaCaT cells (HaCaT cells)
3.13 µM: MIC [1, 20]
92%: hemolysis rate (mouse red blood cells; 100 µM)
2%: hemolysis rate (mouse red blood cells; 12.5 µM)
50 µM: MBIC ([2]; P. aeruginosa 559)
100%: hemolysis rate (mouse red blood cells; 200 µM)
11%: hemolysis rate (mouse red blood cells; 25 µM)
>25 µM: MIC (P. aeruginosa 27853; CaCl2 1.25 mM) | MIC (P. aeruginosa 27853; CaCl2 2.5 mM) | MIC (P. aeruginosa 27853; CaCl2 5 mM) | MIC (P. aeruginosa 27853; MgCl2 2 mM) | MIC (P. aeruginosa 27853; NaCl 100 mM) | MIC (P. aeruginosa 27853; NaCl 150 mM)
25 µM: MIC [1, 7] | MIC [1, 16] | MIC (P. aeruginosa 27853; MgCl2 0.5 mM) | MIC (P. aeruginosa 27853; MgCl2 1 mM) | MIC (P. aeruginosa 27853; NaCl 50 mM) | MBIC ([2]; P. aeruginosa 434) | MBIC ([2]; P. aeruginosa 778) | MBIC ([2]; P. aeruginosa 1034) | MBIC ([2]; P. aeruginosa 1162) | MBIC ([2]; P. aeruginosa 4007) | MBIC [2, 22]
6.25 µM: MIC [1, 6] | MIC [1, 9] | MIC [1, 12] | MIC [1, 13] | MIC [1, 14] | MIC [1, 15] | MIC [1, 18] | MBIC ([2]; P. aeruginosa 3543)
not toxic: toxicity to mammalian cells (mammalian cells)
55%: hemolysis rate (mouse red blood cells; 50 µM)
12.5 µM: MIC [1, 3] | MIC [1, 4] | MIC [1, 5] | MIC [1, 8] | MIC [1, 10] | MIC [1, 11] | MIC [1, 17] | MIC [1, 19] | MIC [1, 21] | MBIC ([2]; P. aeruginosa 3399)

ILKKLLKKVKKI-NH2 [Hp1404-T1e]
0.78 µM: MIC [1, 12]
>25 µM: MIC (P. aeruginosa 27853; CaCl2 5 mM)
12.5 µM: MIC [1, 13] | MIC (P. aeruginosa 27853; CaCl2 2.5 mM) | MIC (P. aeruginosa 27853; MgCl2 2 mM) | MIC (P. aeruginosa 27853; NaCl 150 mM) | MBIC ([2]; P. aeruginosa 434) | MBIC ([2]; P. aeruginosa 559) | MBIC ([2]; P. aeruginosa 3399) | MBIC ([2]; P. aeruginosa 4007) | MBIC [2, 22]
6.25 µM: MIC [1, 3] | MIC [1, 7] | MIC [1, 11] | MIC (P. aeruginosa 27853; CaCl2 1.25 mM) | MIC (P. aeruginosa 27853; NaCl 50 mM) | MIC (P. aeruginosa 27853; NaCl 100 mM) | MBIC ([2]; P. aeruginosa 778) | MBIC ([2]; P. aeruginosa 1034) | MBIC ([2]; P. aeruginosa 1162)
50 µM: MBIC ([2]; P. aeruginosa 3543)
100%: survival rate of HaCaT cells (HaCaT cells)
3.13 µM: MIC [1, 4] | MIC [1, 5] | MIC [1, 6] | MIC [1, 15] | MIC [1, 16] | MIC [1, 17] | MIC (P. aeruginosa 27853; MgCl2 0.5 mM) | MIC (P. aeruginosa 27853; MgCl2 1 mM)
1.56 µM: MIC [1, 8] | MIC [1, 9] | MIC [1, 10] | MIC [1, 14] | MIC [1, 18] | MIC [1, 19] | MIC [1, 20] | MIC [1, 21]
